Source: patent EP4778924A1 (Huons Co., Ltd., priority 2023, dated 2025)
pIC50: −log10 of the molar value. Where a name gives a salt, the structure may show the parent alone.

Target: T1, Proton Pump (H^+,K^+-ATPase) (Sus scrofa, UniProt P19156)
T1 construct: gastric vesicles were isolated from porcine stomachs; from tissue; host or cells: porcine stomach (gastric vesicles)
Experiment: Inhibitory activity on proton pump (H+,K+-ATPase) activity, porcine gastric vesicles, malachite green readout
Type: biochemical
Conditions: for pIC50: porcine gastric vesicles, pH 6.5, 8 mM KCl, 0.2 mM ATP
Description: Specifically, gastric vesicles were isolated from porcine stomachs, and the protein content of the vesicles was quantified using a BSA kit (Bio-Rad, 5000205). All reactions were performed in 96-well plates with a reaction volume of […] containing 100 ng of vesicles. 10 mM valinomycin and the test compound were added to reaction buffer (50 mM Tris-HEPES, 5 mM MgCl2, 8 mM KCl, pH 6.5) containing porcine gastric vesicles at various concentrations, and the mixture was incubated at 37°C for 30 minutes. DMSO or test compounds at different concentrations were added after diluting them to a final DMSO concentration of 0.1%. 0.2 mM adenosine triphosphate (ATP) was then added to the reaction buffer and incubated at 37°C for 20 minutes. The reaction was stopped with 0.2% Tween 20, followed by the addition of malachite green (Sigma Aldrich, MAK307) and incubation at room temperature for 30 minutes. The optical density (OD) value was measured at 620 nm using a microplate reader (Spectramax M5e, Molecular devices). The percent (%) inhibition was derived from the OD values of the control group and various concentrations of the test compounds. The IC50 of the test compounds was analyzed using nonlinear regression using the GraphPad Prism8 program using the % inhibition value at each concentration.

T1 sequence (P19156 2-1034 limits assumed): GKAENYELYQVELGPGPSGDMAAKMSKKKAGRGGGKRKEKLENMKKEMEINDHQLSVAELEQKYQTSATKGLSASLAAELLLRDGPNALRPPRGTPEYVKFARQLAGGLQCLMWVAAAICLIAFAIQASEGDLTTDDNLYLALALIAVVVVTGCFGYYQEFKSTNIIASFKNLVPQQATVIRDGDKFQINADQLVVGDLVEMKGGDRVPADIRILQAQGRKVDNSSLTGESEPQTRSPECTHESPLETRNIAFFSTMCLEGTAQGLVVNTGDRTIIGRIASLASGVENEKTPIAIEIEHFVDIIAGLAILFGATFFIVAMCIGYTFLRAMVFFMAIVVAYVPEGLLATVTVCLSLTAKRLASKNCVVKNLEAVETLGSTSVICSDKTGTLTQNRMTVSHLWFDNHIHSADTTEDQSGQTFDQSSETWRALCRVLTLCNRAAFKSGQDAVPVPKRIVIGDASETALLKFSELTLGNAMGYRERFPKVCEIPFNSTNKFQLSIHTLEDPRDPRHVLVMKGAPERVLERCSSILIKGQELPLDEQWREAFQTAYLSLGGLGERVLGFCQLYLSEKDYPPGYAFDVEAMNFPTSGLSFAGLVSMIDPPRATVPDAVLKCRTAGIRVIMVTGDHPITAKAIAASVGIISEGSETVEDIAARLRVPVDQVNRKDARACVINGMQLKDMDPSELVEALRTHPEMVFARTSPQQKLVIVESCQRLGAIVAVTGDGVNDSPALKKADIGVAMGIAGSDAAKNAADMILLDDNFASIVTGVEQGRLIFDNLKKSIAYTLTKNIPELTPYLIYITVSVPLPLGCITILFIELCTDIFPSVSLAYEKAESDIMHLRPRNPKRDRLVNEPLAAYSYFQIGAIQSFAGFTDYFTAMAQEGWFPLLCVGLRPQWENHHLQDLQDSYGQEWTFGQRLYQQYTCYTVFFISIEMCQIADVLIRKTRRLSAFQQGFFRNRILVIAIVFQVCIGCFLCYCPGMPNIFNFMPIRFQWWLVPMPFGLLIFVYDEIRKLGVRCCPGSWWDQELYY
T1 sequence (P18434 whole entry partner): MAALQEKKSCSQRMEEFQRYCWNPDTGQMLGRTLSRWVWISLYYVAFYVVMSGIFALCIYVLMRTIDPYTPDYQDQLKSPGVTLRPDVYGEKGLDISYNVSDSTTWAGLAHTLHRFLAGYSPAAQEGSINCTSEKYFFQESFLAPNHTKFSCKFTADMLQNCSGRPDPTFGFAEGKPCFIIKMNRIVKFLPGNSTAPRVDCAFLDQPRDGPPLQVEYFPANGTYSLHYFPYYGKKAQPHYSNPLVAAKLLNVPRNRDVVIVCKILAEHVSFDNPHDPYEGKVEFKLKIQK

With `Cc1cccc(C)c1CNc1cc(NC(=O)NCCN)cn2c(C)c(C)nc12` [Example 37, 1-(2-aminoethyl)-3-(8-((2,6-dimethylbenzyl)amino)-2,3-dimethylimidazo[1,2-a]pyridin-6-yl)urea hydrochloride] as the compound, how does the pIC50 read?
Its pIC50 is 7.00 to 7.30.

`Cc1cccc(C)c1CNc1cc(NC(=O)CCC(=O)O)cn2c(C)c(C)nc12` [Example 38, 4-((8-((2,6-dimethylbenzyl)amino)-2,3-dimethylimidazo[1,2-a]pyridin-6-yl)amino)-4-oxobutanoic acid] was tested. Which pIC50 did it give?
The pIC50 was less than 6.30.

`Cc1cccc(C)c1CNc1cc(NC(=O)CCOCCC(=O)O)cn2c(C)c(C)nc12` [Example 39] was tested. Which pIC50 did it give?
The pIC50 was less than 6.30.

How did the pIC50 turn out when `CCOC(=O)CCC(=O)Nc1cc(NCc2c(C)cccc2C)c2nc(C)c(C)n2c1` [Example 40, ethyl 4-((8-((2,6-dimethylbenzyl)amino)-2,3-dimethylimidazo[1,2-a]pyridin-6-yl)amino)-4-oxobutanoate] was run?
Its pIC50 is 6.30 to 7.00.

`Cc1cccc(C)c1CNc1cc(NC(=O)CCOCCC(=O)OC(C)(C)C)cn2c(C)c(C)nc12` [Example 41] was tested. Which pIC50 did it give?
The pIC50 was less than 6.30.

`Cc1cccc(C)c1CNc1cc(NC(=O)N(C)C)cn2c(C)c(C)nc12` [Example 43, 3-(8-((2,6-dimethylbenzyl)amino)-2,3-dimethylimidazo[1,2-a]pyridin-6-yl)-1,1-dimethylurea hydrochloride] was tested. Which pIC50 did it give?
The pIC50 was greater than 7.30.

`CNC(=O)Nc1cc(NCc2c(C)cc(F)cc2C)c2nc(C)c(C)n2c1` [Example 44, 1-(8-((4-fluoro-2,6-dimethylbenzyl)amino)-2,3-dimethylimidazo[1,2-a]pyridin-6-yl)-3-methylurea hydrochloride] was tested. Which pIC50 did it give?
Its pIC50 is greater than 7.30.

`COC(=O)CNC(=O)Nc1cc(NCc2c(C)cccc2C)c2nc(C)c(C)n2c1` [Example 46, hydrochloride] was tested. Which pIC50 did it give?
Its pIC50 is 7.00 to 7.30.

How did the pIC50 turn out when `CNC(=O)CNC(=O)Nc1cc(NCc2c(C)cccc2C)c2nc(C)c(C)n2c1` [Example 47, 2-(3-(8-((2,6-dimethylbenzyl)amino)-2,3-dimethylimidazo[1,2-a]pyridin-6-yl)ureido)-N-methylacetamide hydrochloride] was run?
Its pIC50 is 7.00 to 7.30.

With `Cc1cccc(C)c1CNc1cc(NC(=O)NCC(=O)N(C)C)cn2c(C)c(C)nc12` [Example 48, 2-(3-(8-((2,6-dimethylbenzyl)amino)-2,3-dimethylimidazo[1,2-a]pyridin-6-yl)ureido)-N,N-dimethylacetamide hydrochloride] as the compound, how does the pIC50 read?
The pIC50 was 7.00 to 7.30.

`Cc1cc(F)cc(C)c1CNc1cc(NC(=O)N(C)C)cn2c(C)c(C)nc12` [Example 49, 3-(8-((4-fluoro-2,6-dimethylbenzyl)amino)-2,3-dimethylimidazo[1,2-a]pyridin-6-yl)-1,1-dimethylurea hydrochloride] was tested. Which pIC50 did it give?
The pIC50 was greater than 7.30.

With `Cc1cc(F)cc(C)c1CNc1cc(NC(=O)NC2CC2)cn2c(C)c(C)nc12` [Example 50, 1-cyclopropyl-3-(8-((4-fluoro-2,6-dimethylbenzyl)amino)-2,3-dimethylimidazo[1,2-a]pyridin-6-yl)urea hydrochloride] as the compound, how does the pIC50 read?
The pIC50 was greater than 7.30.

How did the pIC50 turn out when `Cc1cc(F)cc(C)c1CNc1cc(NC(=O)N2CCC2)cn2c(C)c(C)nc12` [Example 51, N-(8-((4-fluoro-2,6-dimethylbenzyl)amino)-2,3-dimethylimidazo[1,2-a]pyridin-6-yl)azetidine-1-carboxamide citrate] was run?
The pIC50 was greater than 7.30.

`CC(=O)NCC(=O)Nc1cc(NCc2c(C)cccc2C)c2nc(C)c(C)n2c1` [Example 52, 2-acetamido-N-(8-((2,6-dimethylbenzyl)amino)-2,3-dimethylimidazo[1,2-a]pyridin-6-yl)acetamide] was tested. Which pIC50 did it give?
Its pIC50 is 6.30 to 7.00.

With `Cc1cccc(C)c1CNc1cc(NC(=O)CN(C)C)cn2c(C)c(C)nc12` [Example 53, 2-(dimethylamino)-N-(8-((2,6-dimethylbenzyl)amino)-2,3-dimethylimidazo[1,2-a]pyridin-6-yl)acetamide] as the compound, how does the pIC50 read?
The pIC50 was 6.30 to 7.00.

How did the pIC50 turn out when `CCCNC(=O)Nc1cc(NCc2c(C)cccc2C)c2nc(C)c(C)n2c1` [Example 54] was run?
The pIC50 was 6.30 to 7.00.

`Cc1cccc(C)c1CNc1cc(NC(=O)CNC(=O)C(C)(C)C)cn2c(C)c(C)nc12` [Example 55, N-(2-((8-((2,6-dimethylbenzyl)amino)-2,3-dimethylimidazo[1,2-a]pyridin-6-yl)amino)-2-oxoethyl)pivalamide] was tested. Which pIC50 did it give?
The pIC50 was less than 6.30.

How did the pIC50 turn out when `Cc1cccc(C)c1CNc1cc(NC(=O)CNC(=O)C(F)F)cn2c(C)c(C)nc12` [Example 56, N-(2-((8-((2,6-dimethylbenzyl)amino)-2,3-dimethylimidazo[1,2-a]pyridin-6-yl)amino)-2-oxoethyl)-2,2-difluoroacetamide] was run?
The pIC50 was less than 6.30.

How did the pIC50 turn out when `Cc1cccc(C)c1CNc1cc(NC(=O)CNC(=O)C(C)(F)F)cn2c(C)c(C)nc12` [Example 57, N-(2-((8-((2,6-dimethylbenzyl)amino)-2,3-dimethylimidazo[1,2-a]pyridin-6-yl)amino)-2-oxoethyl)-2,2-difluoropropanamide] was run?
The pIC50 was 6.30 to 7.00.

With `Cc1cccc(C)c1CNc1cc(NC(=O)CNC(=O)C2CC(O)C2)cn2c(C)c(C)nc12` (centres unmarked) [Example 58, N-(2-((8-((2,6-dimethylbenzyl)amino)-2,3-dimethylimidazo[1,2-a]pyridin-6-yl)amino)-2-oxoethyl)-3-hydroxycyclobutane-1-carboxamide] as the compound, how does the pIC50 read?
Its pIC50 is 6.30 to 7.00.

`Cc1cccc(C)c1CNc1cc(NC(=O)CNC(=O)C2CC(F)C2)cn2c(C)c(C)nc12` (centres unmarked) [Example 59, N-(2-((8-((2,6-dimethylbenzyl)amino)-2,3-dimethylimidazo[1,2-a]pyridin-6-yl)amino)-2-oxoethyl)-3-fluorocyclobutane-1-carboxamide] was tested. Which pIC50 did it give?
The pIC50 was 6.30 to 7.00.

With `Cc1cccc(C)c1CNc1cc(NC(=O)N2CCOCC2)cn2c(C)c(C)nc12` [Example 61, N-(8-((2,6-dimethylbenzyl)amino)-2,3-dimethylimidazo[1,2-a]pyridin-6-yl)morpholine-4-carboxamide citrate] as the compound, how does the pIC50 read?
The pIC50 was 7.00 to 7.30.

`CC(=O)OCCNC(=O)Nc1cc(NCc2c(C)cccc2C)c2nc(C)c(C)n2c1` [Example 62, 2-(3-(8-((2,6-dimethylbenzyl)amino)-2,3-dimethylimidazo[1,2-a]pyridin-6-yl)ureido)ethyl acetate hydrochloride] was tested. Which pIC50 did it give?
Its pIC50 is 6.30 to 7.00.

How did the pIC50 turn out when `Cc1cc(F)cc(C)c1CNc1cc(NC(=O)[C@H](C)N)cn2c(C)c(C)nc12` [Example 63, (S)-2-amino-N-(8-((4-fluoro-2,6-dimethylbenzyl)amino)-2,3-dimethylimidazo[1,2-a]pyridin-6-yl)propanamide hydrochloride] was run?
Its pIC50 is 7.00 to 7.30.

How did the pIC50 turn out when `Cc1cc(F)cc(C)c1CNc1cc(NC(=O)CN)cn2c(C)c(C)nc12.Cl` [Example 64, 2-amino-N-(8-((4-fluoro-2,6-dimethylbenzyl)amino)-2,3-dimethylimidazo[1,2-a]pyridin-6-yl)acetamide hydrochloride] was run?
Its pIC50 is greater than 7.30.

What about the “inhibitory activity against proton pump activity” value (result in words) of the same compound?
The value was “excellent inhibitory properties”.

With `Cc1cc(F)cc(C)c1CNc1cc(NC(=O)[C@@H]2CCN2)cn2c(C)c(C)nc12` [Example 65, (S)-N-(8-((4-fluoro-2,6-dimethylbenzyl)amino)-2,3-dimethylimidazo[1,2-a]pyridin-6-yl)azetidine-2-carboxamide hydrochloride] as the compound, how does the pIC50 read?
Its pIC50 is 7.00 to 7.30.

`Cc1cccc(C)c1CNc1cc(NC(=O)N2CC3(CCC3)C2)cn2c(C)c(C)nc12` [Example 66, N-(8-((2,6-dimethylbenzyl)amino)-2,3-dimethylimidazo[1,2-a]pyridin-6-yl)-2-azaspiro[3.3]heptane-2-carboxamide citrate] was tested. Which pIC50 did it give?
Its pIC50 is 6.30 to 7.00.

How did the pIC50 turn out when `Cc1cccc(C)c1CNc1cc(NC(=O)N2Cc3ccccc3C2)cn2c(C)c(C)nc12` [Example 67, N-(8-((2,6-dimethylbenzyl)amino)-2,3-dimethylimidazo[1,2-a]pyridin-6-yl)isoindoline-2-carboxamide] was run?
The pIC50 was 7.00 to 7.30.

With `Cc1cccc(C)c1CNc1cc(NC(=O)N2Cc3ccncc3C2)cn2c(C)c(C)nc12` [Example 68, N-(8-((2,6-dimethylbenzyl)amino)-2,3-dimethylimidazo[1,2-a]pyridin-6-yl)-1,3-dihydro-2H-pyrrolo[3,4-c]pyridine-2-carboxamide] as the compound, how does the pIC50 read?
The pIC50 was 7.00 to 7.30.

How did the pIC50 turn out when `Cc1cccc(C)c1CNc1cc(NC(=O)N2CC(=O)C2)cn2c(C)c(C)nc12` [Example 69, N-(8-((2,6-dimethylbenzyl)amino)-2,3-dimethylimidazo[1,2-a]pyridin-6-yl)-3-oxoazetidine-1-carboxamide citrate] was run?
Its pIC50 is greater than 7.30.

How did the pIC50 turn out when `Cc1cccc(C)c1CNc1cc(NC(=O)NCC(=O)O)cn2c(C)c(C)nc12` [Example 70, ((8-((2,6-dimethylbenzyl)amino)-2,3-dimethylimidazo[1,2-a]pyridin-6-yl)carbamoyl)glycine hydrochloride] was run?
The pIC50 was 6.30 to 7.00.

With `Cc1cccc(C)c1CNc1cc(NC(=O)NCCC(=O)O)cn2c(C)c(C)nc12` [Example 71, 3-(3-(8-((2,6-dimethylbenzyl)amino)-2,3-dimethylimidazo[1,2-a]pyridin-6-yl)ureido)propionic acid citrate] as the compound, how does the pIC50 read?
Its pIC50 is 6.30 to 7.00.

With `Cc1cccc(C)c1CNc1cc(N2C(=O)NCCNC2=O)cn2c(C)c(C)nc12` [Example 72, 3-(8-((2,6-dimethylbenzyl)amino)-2,3-dimethylimidazo[1,2-a]pyridin-6-yl)-1,3,5-triazepane-2,4-dione] as the compound, how does the pIC50 read?
Its pIC50 is 6.30 to 7.00.

`CC(=O)NCCNC(=O)Nc1cc(NCc2c(C)cccc2C)c2nc(C)c(C)n2c1` [Example 73, N-(2-(3-(8-((2,6-dimethylbenzyl)amino)-2,3-dimethylimidazo[1,2-a]pyridin-6-yl)ureido)ethyl)acetamide] was tested. Which pIC50 did it give?
Its pIC50 is 6.30 to 7.00.
